Source: ChEMBL document CHEMBL4219126, “Synthesis and biological evaluation of benzocyclobutane-C-glycosides as potent and orally active SGLT1/SGLT2 dual inhibitors” (Bioorg Med Chem Lett, 2018)
The source made the active and inactive calls. The rule behind the calls is not given here.

Assays:
[1] = molecular target: T1, Sodium/glucose cotransporter 2 (Homo sapiens) (UniProt P31639); test: Inhibition of human kidney SGLT2 expressed in CHOK1 cells assessed as decrease in [14C]-AMG uptake at 30 nM preincubated for 10 mins followed by [14C]-AMG addition and measured after 2 hrs by TopCount method relative to control; type: cell-based
T1 sequence (whole entry): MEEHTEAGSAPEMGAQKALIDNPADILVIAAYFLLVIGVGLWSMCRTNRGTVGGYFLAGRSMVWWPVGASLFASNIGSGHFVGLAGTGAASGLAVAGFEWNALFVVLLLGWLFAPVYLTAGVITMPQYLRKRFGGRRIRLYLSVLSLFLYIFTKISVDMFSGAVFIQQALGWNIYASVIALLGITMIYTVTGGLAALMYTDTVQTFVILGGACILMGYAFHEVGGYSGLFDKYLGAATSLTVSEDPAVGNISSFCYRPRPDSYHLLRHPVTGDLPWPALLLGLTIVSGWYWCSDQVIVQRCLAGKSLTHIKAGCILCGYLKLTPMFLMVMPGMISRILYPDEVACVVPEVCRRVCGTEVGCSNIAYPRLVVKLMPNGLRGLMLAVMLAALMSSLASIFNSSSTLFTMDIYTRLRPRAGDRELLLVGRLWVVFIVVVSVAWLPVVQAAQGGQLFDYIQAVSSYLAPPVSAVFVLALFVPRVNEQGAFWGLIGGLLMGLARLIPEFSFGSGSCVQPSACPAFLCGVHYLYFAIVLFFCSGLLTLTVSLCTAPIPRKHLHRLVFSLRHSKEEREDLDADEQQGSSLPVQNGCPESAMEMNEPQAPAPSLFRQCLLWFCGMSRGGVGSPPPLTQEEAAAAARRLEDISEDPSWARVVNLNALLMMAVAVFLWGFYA

[2] = molecular target: T2, Sodium/glucose cotransporter 1 (Homo sapiens) (UniProt P13866); test: Inhibition of human small intestinal SGLT1 expressed in CHOK1 cells assessed as decrease in [14C]-AMG uptake at 300 nM preincubated for 10 mins followed by [14C]-AMG addition and measured after 2 hrs by TopCount method relative to control; type: cell-based
T2 sequence (whole entry): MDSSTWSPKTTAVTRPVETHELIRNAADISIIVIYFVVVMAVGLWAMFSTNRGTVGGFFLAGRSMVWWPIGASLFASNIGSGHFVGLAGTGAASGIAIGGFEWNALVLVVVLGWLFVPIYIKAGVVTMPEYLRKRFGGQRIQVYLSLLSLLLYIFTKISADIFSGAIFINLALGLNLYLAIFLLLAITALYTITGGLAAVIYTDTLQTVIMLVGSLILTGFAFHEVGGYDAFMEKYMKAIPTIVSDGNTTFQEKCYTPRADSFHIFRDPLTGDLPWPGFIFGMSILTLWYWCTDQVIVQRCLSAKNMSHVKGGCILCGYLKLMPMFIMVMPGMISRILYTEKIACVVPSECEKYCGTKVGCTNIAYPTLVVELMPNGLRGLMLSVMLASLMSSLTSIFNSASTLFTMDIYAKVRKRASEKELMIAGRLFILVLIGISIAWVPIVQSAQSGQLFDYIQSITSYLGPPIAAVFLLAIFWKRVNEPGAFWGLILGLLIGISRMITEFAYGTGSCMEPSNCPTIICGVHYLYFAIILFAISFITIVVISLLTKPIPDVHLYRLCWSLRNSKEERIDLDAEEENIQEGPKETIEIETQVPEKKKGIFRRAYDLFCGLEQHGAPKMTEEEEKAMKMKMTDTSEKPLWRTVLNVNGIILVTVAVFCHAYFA

[3] = AUC (infinity) in mouse at 5 mg/kg, iv; type: ADME, organism-based; set-up: dose 5 mg/kg, time infinity, route intravenous; conditions: in vivo
[4] = Terminal half life in rat at 10 mg/kg administered via oral gavage; type: ADME, organism-based; conditions: in vivo, read-out: beta t1/2 (converted)
[5] = Terminal half life in mouse at 5 mg/kg, iv; type: ADME, organism-based; conditions: in vivo, read-out: beta t1/2 (converted)
[6] = Oral bioavailability in rat at 10 mg/kg; type: ADME, organism-based; conditions: in vivo
Rattus norvegicus [7] = test: Antidiabetic activity in Sprague-Dawley rat assessed as decrease in plasma glucose AUC (0 to 120 mins) administered 1 hr prior to U13C6-glucose challenge by OGTT; type: functional, organism-based
[8] = Volume of distribution at steady state in mouse at 5 mg/kg, iv; type: ADME, organism-based; conditions: in vivo, read-out: Vdss
[9] = Systemic clearance in rat at 2 mg/kg, iv; type: ADME, organism-based; conditions: in vivo
[10] = AUC (infinity) in rat at 2 mg/kg, iv; type: ADME, organism-based; set-up: dose 2 mg/kg, time infinity, route intravenous; conditions: in vivo
[11] = Cmax in mouse at 5 mg/kg, iv; type: ADME, organism-based; set-up: dose 5 mg/kg, route intravenous; conditions: in vivo
[12] = Cmax in rat at 2 mg/kg, iv; type: ADME, organism-based; set-up: dose 2 mg/kg, route intravenous; conditions: in vivo
[13] = Terminal half life in rat at 2 mg/kg, iv; type: ADME, organism-based; conditions: in vivo, read-out: beta t1/2 (converted)
[14] = Systemic clearance in mouse at 5 mg/kg, iv; type: ADME, organism-based; conditions: in vivo
[15] = AUC (infinity) in rat at 10 mg/kg administered via oral gavage; type: ADME, organism-based; set-up: dose 10 mg/kg, route oral, time infinity; conditions: in vivo
[16] = Terminal half life in mouse at 20 mg/kg administered via oral gavage; type: ADME, organism-based; conditions: in vivo, read-out: beta t1/2 (converted)
[17] = Cmax in mouse at 20 mg/kg administered via oral gavage; type: ADME, organism-based; set-up: dose 20 mg/kg, route oral; conditions: in vivo
[18] = AUC (infinity) in mouse at 20 mg/kg administered via oral gavage; type: ADME, organism-based; set-up: dose 20 mg/kg, route oral, time infinity; conditions: in vivo
[19] = Cmax in rat at 10 mg/kg administered via oral gavage; type: ADME, organism-based; set-up: dose 10 mg/kg, route oral; conditions: in vivo
[20] = Volume of distribution at steady state in rat at 2 mg/kg, iv; type: ADME, organism-based; conditions: in vivo, read-out: Vdss
[21] = Oral bioavailability in mouse at 20 mg/kg; type: ADME, organism-based; conditions: in vivo
Rattus norvegicus [22] = test: Antidiabetic activity in Sprague-Dawley rat assessed as increase in urinary glucose excrection administered 1 hr prior to U13C6-glucose challenge measured up to 4 hrs by OGTT; type: functional, organism-based
[23] = AUC (infinity) in dog at 2 mg/kg, iv; type: ADME, organism-based, Canis lupus familiaris; set-up: dose 2 mg/kg, time infinity, route intravenous; conditions: in vivo
[24] = AUC (infinity) in dog at 10 mg/kg administered via oral gavage; type: ADME, organism-based, Canis lupus familiaris; set-up: dose 10 mg/kg, route oral, time infinity; conditions: in vivo
[25] = Cmax in dog at 10 mg/kg administered via oral gavage; type: ADME, organism-based, Canis lupus familiaris; set-up: dose 10 mg/kg, route oral; conditions: in vivo
[26] = Systemic clearance in monkey at 2 mg/kg, iv; type: ADME, organism-based, Macaca mulatta; conditions: rhesus monkey, in vivo
[27] = Volume of distribution at steady state in dog at 2 mg/kg, iv; type: ADME, organism-based, Canis lupus familiaris; conditions: in vivo, read-out: Vdss
[28] = Terminal half life in monkey at 10 mg/kg administered via oral gavage; type: ADME, organism-based, Macaca mulatta; conditions: rhesus monkey, in vivo, read-out: beta t1/2 (converted)
[29] = AUC (infinity) in monkey at 10 mg/kg administered via oral gavage; type: ADME, organism-based, Macaca mulatta; set-up: dose 10 mg/kg, time infinity, route oral; conditions: rhesus monkey, in vivo
[30] = AUC (infinity) in monkey at 2 mg/kg, iv; type: ADME, organism-based, Macaca mulatta; set-up: dose 2 mg/kg, route intravenous, time infinity; conditions: rhesus monkey, in vivo
[31] = Terminal half life in dog at 10 mg/kg administered via oral gavage; type: ADME, organism-based, Canis lupus familiaris; conditions: in vivo, read-out: beta t1/2 (converted)
[32] = Volume of distribution at steady state in monkey at 2 mg/kg, iv; type: ADME, organism-based, Macaca mulatta; conditions: rhesus monkey, in vivo, read-out: Vdss
[33] = Cmax in monkey at 2 mg/kg, iv; type: ADME, organism-based, Macaca mulatta; set-up: dose 2 mg/kg, route intravenous; conditions: rhesus monkey, in vivo
Rattus norvegicus [34] = test: Antihyperglycemic activity in diabetic ZDF rat assessed as decrease in fed blood glucose levels at 10 mg/kg measured up to 24 hrs; type: functional, organism-based
[35] = Systemic clearance in dog at 2 mg/kg, iv; type: ADME, organism-based, Canis lupus familiaris; conditions: in vivo
[36] = Oral bioavailability in dog at 10 mg/kg; type: ADME, organism-based, Canis lupus familiaris; conditions: in vivo
[37] = Terminal half life in dog at 2 mg/kg, iv; type: ADME, organism-based, Canis lupus familiaris; conditions: in vivo, read-out: beta t1/2 (converted)
[38] = Oral bioavailability in monkey at 10 mg/kg; type: ADME, organism-based, Macaca mulatta; conditions: rhesus monkey, in vivo
[39] = Cmax in dog at 2 mg/kg, iv; type: ADME, organism-based, Canis lupus familiaris; set-up: dose 2 mg/kg, route intravenous; conditions: in vivo
[40] = Cmax in monkey at 10 mg/kg administered via oral gavage; type: ADME, organism-based, Macaca mulatta; set-up: dose 10 mg/kg, route oral; conditions: rhesus monkey, in vivo
Rattus norvegicus [41] = test: Antidiabetic activity in Sprague-Dawley rat assessed as decrease in postprandial blood glucose level administered 1 hr prior to glucose challenge measured up to 120 mins by OGTT; type: functional, organism-based
[42] = Terminal half life in monkey at 2 mg/kg, iv; type: ADME, organism-based, Macaca mulatta; conditions: rhesus monkey, in vivo, read-out: beta t1/2 (converted)

inhibition [1] [%] | inhibition [2] [%] | AUC(0-inf) [3] [ng·h/mL] | half-life [4] [min] | half-life [5] [min] | bioavailability [6] [%] | Vd [8] [L/kg] | clearance [9] [mL/min/kg] | AUC(0-inf) [10] [ng·h/mL] | Cmax [11] [ng/mL] | Cmax [12] [ng/mL] | half-life [13] [min] | clearance [14] [mL/min/kg] | AUC(0-inf) [15] [ng·h/mL] | half-life [16] [min] | Cmax [17] [ng/mL] | AUC(0-inf) [18] [ng·h/mL] | Cmax [19] [ng/mL] | Vd [20] [L/kg] | bioavailability [21] [%] | SMILES | further results
43 | 0 |  |  |  |  |  |  |  |  |  |  |  |  |  |  |  |  |  |  | N#Cc1ccc([C@@H]2O[C@H](CO)[C@@H](O)[C@H](O)[C@H]2O)cc1Cc1ccc2c(c1)CC2 | 
 |  | 4560 | 133 | 75 | 49 | 1.06 | 47.8 | 697 | 8200 | 2110 | 76.2 | 18.3 | 1790 | 161 | 4760 | 11500 | 717 | 2.18 | 62.8 | Cc1cc(O)c([C@@H]2O[C@H](CO)[C@@H](O)[C@H](O)[C@H]2O)cc1Cc1ccc2c(c1)CC2 | Activity (Rattus norvegicus [7]): Dose-dependent effect; Activity (Rattus norvegicus [22]): Dose-dependent effect
31 | 67 |  |  |  |  |  |  |  |  |  |  |  |  |  |  |  |  |  |  | COc1cc(C2CC2)c(Cc2ccc3c(c2)CC3)cc1[C@@H]1O[C@H](CO)[C@@H](O)[C@H](O)[C@H]1O | 
23 | 5 |  |  |  |  |  |  |  |  |  |  |  |  |  |  |  |  |  |  | OC[C@H]1O[C@@H](c2cccc(Cc3ccc4c(c3)CC4)c2)[C@H](O)[C@@H](O)[C@@H]1O | 
35 | 67 |  |  |  |  |  |  |  |  |  |  |  |  |  |  |  |  |  |  | CN(C)c1ccc([C@@H]2O[C@H](CO)[C@@H](O)[C@H](O)[C@H]2O)cc1Cc1ccc2c(c1)CC2 | 
 |  | 6390 | 149 | 145 | 78 | 2.19 | 48.3 | 697 | 5870 | 1110 | 130 | 13 | 2650 | 197 | 5680 | 25500 | 634 | 4.01 | 99 | OC[C@H]1O[C@@H](c2ccc(Cl)c(Cc3ccc4c(c3)CC4)c2)[C@H](O)[C@@H](O)[C@@H]1O | AUC(0-inf) [23]: 50800 ng·h/mL; AUC(0-inf) [24]: 332 µg·h/mL; Cmax [25]: 20100 ng/mL; clearance [26]: 3.74 mL/min/kg; Vd [27]: 0.4 L/kg; half-life [28]: 267 min; AUC(0-inf) [29]: 40500 ng·h/mL; AUC(0-inf) [30]: 9210 ng·h/mL; half-life [31]: 768 min; Vd [32]: 0.91 L/kg; Cmax [33]: 9110 ng/mL; Activity (Rattus norvegicus [34]): Active; clearance [35]: 0.68 mL/min/kg; bioavailability [36]: 107%; half-life [37]: 476 min; bioavailability [38]: 88%; Cmax [39]: 9600 ng/mL; Cmax [40]: 7180 ng/mL; Activity (Rattus norvegicus [41]): Active; half-life [42]: 283 min
